The values below are quoted from earlier work in US11571438B1, “Nutraceutical compositions to up-regulate SIRT1 and methods of use” (priority 2022, dated 2023).

Structures are written as SMILES.

The subject of one data set is AMPK. The note with it: individual administration.
For `COc1ccc2cc3[n+](cc2c1OC)CCc1cc2c(cc1-3)OCO2` [berberine], the AMPK activation result is “statistically significant increase”.
`COc1cc(/C=C/C(=O)O)ccc1O` [ferulic acid]: the AMPK activation result is “statistically significant increase”.
As for `O=c1c(O)c(-c2ccc(O)c(O)c2)oc2cc(O)cc(O)c12` [quercetin], the AMPK activation result is “statistically significant increase”.
In the case of `OCCc1ccc(O)cc1` [tyrosol], the AMPK activation result was “statistically significant increase”.

In another data set the test system is mTOR. Particulars: individual administration.
On to `COc1ccc2cc3[n+](cc2c1OC)CCc1cc2c(cc1-3)OCO2` [berberine], for which the mTOR inhibition result was “statistically significant increase”.
Take `COc1cc(/C=C/C(=O)O)ccc1O` [ferulic acid]: the mTOR inhibition entry is recorded as “statistically significant increase”.
Regarding `O=c1c(O)c(-c2ccc(O)c(O)c2)oc2cc(O)cc(O)c12` [quercetin], the mTOR inhibition result is given as “statistically significant increase”.
Consider `OCCc1ccc(O)cc1` [tyrosol], for which the mTOR inhibition entry is “statistically significant increase”.
